“Also recorded” adds a separate entry of the source.
Tested on: b-subunit of ATP synthase (atpF, Rv1306) and hsp (Rv0251c)
Format: cell-based, M. bovis BCG (Pasteur strain, ATCC 35734)

SMILES | overexpression of hsp and b-subunit of ATP synthase on 2-D gels | time to overexpression of both proteins post exposure [h]
C/C=C/C/C=C/CCC(=O)[C@H]1O[C@H]1C(N)=O [cerulenin] | Neither; also recorded: failed to result in overexpression | 
CCCCCCCCS(=O)(=O)CC(N)=O [OSA, n-octanesulfonylacetamide] | significant overexpression | ≤ 3.5
NNC(=O)c1ccncc1 [INH, isoniazid] | Neither; also recorded: failed to result in overexpression | 
